Values of other authors as cited in US20100111883A1, “CYCLODEXTRIN FORMULATIONS” (priority 2007, published 2010).

Columns and labels:
[1] = HPBCD alone, through the skin; stated as typical

Which results are given for CC(O)COC[C@H]1O[C@@H]2O[C@H]3[C@H](O)[C@@H](O)[C@@H](O[C@H]4[C@H](O)[C@@H](O)[C@@H](O[C@H]5[C@H](O)[C@@H](O)[C@@H](O[C@H]6[C@H](O)[C@@H](O)[C@@H](O[C@H]7[C@H](O)[C@@H](O)[C@@H](O[C@H]8[C@H](O)[C@@H](O)[C@@H](O[C@H]1[C@H](O)[C@H]2O)O[C@@H]8COCC(C)O)O[C@@H]7COCC(C)O)O[C@@H]6COCC(C)O)O[C@@H]5COCC(C)O)O[C@@H]4COCC(C)O)O[C@@H]3COCC(C)O (stereo partly drawn) [HPBCD, β-cyclodextrin, 2-hydroxypropyl ether]?
skin penetration [1]: about 0.1%; water solubility: freely water soluble
